# Entries after “also recorded” stand apart in the source; their conditions may differ. Where two headings read alike, the source gives them in different places.
# How the values were obtained:
# Pseudomonas aeruginosa = assay: MIC against Pseudomonas aeruginosa; type: cell-based; conditions: for MIC: read-out: MIC, PA
# MRSA (USA700) biofilms = assay: S. aureus biofilm assay; type: cell-based, Staphylococcus aureus; conditions: USA700 biofilm, 24 h
# Method: Biofilm assays were performed using a method previously described with modification. A 96 well plate was precoated with 20% human plasma (Sigma) in 0.05 M carbonate buffer, pH 9.6 at 4 °C for 24 h. MRSA was cultured overnight in TSB containing 3% NaCl and 0.5% glucose. The overnight culture was diluted with TSB/NaCl/Glucose media until OD600 reached 0.05. After carefully removing the liquid from the 96 well plate, 200 μL of MRSA dilution was added to each well in triplicate. The plate was incubated at 37 °C for 24 h and carefully washed with PBS twice. MH broth (200 μL) containing a compound was added to each well in triplicate and incubated at 37 °C for 24 h. After washing with PBS twice, the biofilm was scraped in 100 μL of PBS and serially diluted and plated on TSA to determine CFU.
# Enterococcus faecalis = assay: MIC against Enterococcus faecalis; type: cell-based; conditions: for MIC: read-out: MIC, EF
# Gram-positive bacteria = assay: MIC against Gram-positive bacteria (summary); type: cell-based; conditions: range over all tested Gram-positive bacteria
# Method: (§1) 96-well plates were seeded with 5 × 10^5 CFU/mL in a volume of 100 μL of tryptic soy broth (TSB) per well for Staphylococcus aureus assays. Compounds were dissolved in DMSO and serially diluted as 1:2 dilutions to give the final concentration ranging from 0.25 to 128 μg/mL per well. […] Plates were incubated at 37 °C for 18–20 hours and MIC was determined by reading OD625. For M.avium and M.abscessus, 7H9 broth media was used for determination of MICs. The final concentration was 5 × 10^5 CFU/mL in each well. The plate was incubated at 37 °C for 7–8 days and MICs were determined using a Tecan microplate reader (OD625) and resazurin reduction assay.
# [1] = test system: Methicillin susceptible Staphylococcus aureus; assay: MIC against MSSA; type: cell-based; conditions: for MIC: MSSA
# Method: as §1
# Mycobacterium avium = assay: MIC against Mycobacterium avium; type: cell-based; conditions: 7H9 broth, 7–8 days
# Method: as §1
# MRSA USA300 = assay: MIC against MRSA USA300; type: cell-based, Staphylococcus aureus; conditions: TSB, 37 °C, 18–20 hours; for MIC: Staphylococcus aureus, read-out: MIC, Staphylococcus aureus isolate USA300
# Method: as §1
# MRSA USA500 = assay: MIC against MRSA USA500; type: cell-based, Staphylococcus aureus; conditions: TSB, 37 °C, 18–20 hours; for MIC: Staphylococcus aureus, read-out: MIC, Staphylococcus aureus isolate USA500
# Method: as §1
# MRSA USA200 = assay: MIC against MRSA USA200; type: cell-based, Staphylococcus aureus; conditions: TSB, 37 °C, 18–20 hours; for MIC: Staphylococcus aureus, read-out: MIC, Staphylococcus aureus isolate USA200
# Method: as §1
# MRSA USA 700 = assay: Menaquinone (MK-4) rescue, resazurin reduction assay, USA 700; type: cell-based; conditions: Staphylococcus aureus, read-out: MIC in the presence of MK-4
# Method: (§2) Resazurin reduction assay was performed in 96-well plate. MRSA was cultured in TSB until OD625 reached 0.4~0.5 and diluted and plated in 96-well plate. […] The plate was incubated overnight at 37 °C followed by 20 μL of resazurin (0.15 mg/mL) was added to each well. The plate was incubated for 2–4 h and fluorescence was measured at 560 nm excitation/590 nm emission.
# TNF-α = TNF-α release from THP-1 macrophages; type: cell-based, human; conditions: concentration equal to MIC, 24 h, 37 °C
# Method: (§3) THP-1 cells were differentiated into macrophages by treatment with PMA (7.5 ng/mL). Levels of the human cytokines (GM-CSF, IFN-γ, IL-1β, IL-2, IL-4, IL-5, IL-6, IL-8, IL-10, TNF-α) released from THP-1 macrophages were determined using a multiplex kit from Life Technologies according to the manufacturer’s instructions. In brief, the 96 well filter plate was pre-wetted, and then 25 μL of the diluted bead suspension was added to each well and washed twice. 100 μL of samples and standards were added to each well. The plate was incubated at room temperature for 2 h on a shaker. Following washing, biotinylated detection antibody was added and incubated for 1 h. After washing, streptavidin-RPE was added to each well and incubated for 0.5 h. The plate was again washed, resuspended in 100 μL of the washing buffer, and read on the Luminex xMAP™ system (Bio-Rad, AtheNA multi-Lyte™, USA). All samples were run in triplicate and standards were run in duplicate.
# MRSA (USA200) = assay: Colony morphology / small colony variant formation on TSA; type: cell-based, Staphylococcus aureus
# Method: MRSA was streaked and then incubated on tryptic soy agar (TSA) containing 0, 2, 4, 8 or 16 μg/mL of inhibitor 3a or 4 μg/mL of 7C or 0.025 μg/mL of rifampin at 37 °C for 96 h. MK-4 (100 μg/mL) was supplemented in TSA containing 8 μg/mL of 3a for the rescue experiment.
# Mycobacterium abscessus = assay: MIC against Mycobacterium abscessus; type: cell-based; conditions: Mycobacteroides abscessus, 7H9 broth, 7–8 days
# Method: as §1
# MRSA (USA 700) = assay: Activity against extracellular MRSA in the presence of human MDMs; type: cell-based, Staphylococcus aureus; conditions: extracellular MRSA USA700, MIC and MIC/4, 24 h
# Method: Human monocyte-derived macrophages (MDM) were cultured at a concentration of 1 × 10^6 cells/mL/well in a 24 well plate. MRSA (USA 700) was cultured in TSB (10 mL) until OD625 reached 0.4~0.5 and then centrifuged at 14,000 rpm for 10 min. The pellets were resuspended in 10 mL of DMEM supplemented with 10% human serum (no antibiotics). The bacteria medium was diluted with DMEM containing an inhibitor to obtain 1 × 10^6 CFU/mL and added to human MDMs (MOI = 1) in a 24-well plate. After 24 hour infection at 37 °C, the supernatants were serially diluted for CFU determination (TSA plates).
# IL-1β = IL-1β release from THP-1 macrophages; type: cell-based, human; conditions: concentration equal to MIC, 24 h, 37 °C
# Method: as §3
# MRSA USA700 = assay: MIC against MRSA USA700; type: cell-based, Staphylococcus aureus; conditions: TSB, 37 °C, 18–20 hours; for MIC: Staphylococcus aureus, read-out: MIC, Staphylococcus aureus isolate USA700
# Method: as §1
# MRSA USA100 = assay: MIC against MRSA USA100; type: cell-based, Staphylococcus aureus; conditions: TSB, 37 °C, 18–20 hours; for MIC: Staphylococcus aureus, read-out: MIC, Staphylococcus aureus isolate USA100
# Method: as §1
# MRSA USA800 = assay: MIC against MRSA USA800; type: cell-based, Staphylococcus aureus; conditions: TSB, 37 °C, 18–20 hours; for MIC: Staphylococcus aureus, read-out: MIC, Staphylococcus aureus isolate USA800
# Method: as §1
# MRSA USA400 = assay: MIC against MRSA USA400; type: cell-based, Staphylococcus aureus; conditions: TSB, 37 °C, 18–20 hours; for MIC: Staphylococcus aureus, read-out: MIC, Staphylococcus aureus isolate USA400
# Method: as §1
# IL-6 = IL-6 release from THP-1 macrophages; type: cell-based, human; conditions: concentration equal to MIC, 24 h, 37 °C
# Method: as §3
# MRSA strains = assay: MIC against MRSA strains (summary); type: cell-based, Staphylococcus aureus; conditions: range over MRSA strains
# Method: as §1
# MRSA USA 200 = assay: Menaquinone (MK-4) rescue, resazurin reduction assay, USA 200; type: cell-based; conditions: Staphylococcus aureus, read-out: MIC in the presence of MK-4
# Method: as §2
SMILES,MIC (Pseudomonas aeruginosa),MIC (Enterococcus faecalis),MIC values against all Gram-positive bacteria (range) (Gram-positive bacteria),MIC [1],MIC (Mycobacterium avium),MIC (MRSA USA300),MIC (MRSA USA500),MIC (MRSA USA200),TNF-α released from THP-1 macrophages (TNF-α),MIC (Mycobacterium abscessus),increase of antibacterial activity compared to activities with MDMs (MRSA (USA 700)),increase of antibacterial activity compared to activities without MDMs (MRSA (USA 700)),IL-1β released from THP-1 macrophages (IL-1β),MIC (MRSA USA700),"MIC, Staphylococcus aureus isolate USA700 (MRSA USA700)",MIC (MRSA USA100),MIC (MRSA USA800),MIC (MRSA USA400),IL-6 released from THP-1 macrophages (IL-6),"MIC, Staphylococcus aureus isolate USA200 (MRSA USA200)",other results
COc1ccc2ccc(OCCCCCCCCNCCc3ccc(F)cc3)cc2c1 [3a],> 64 µg/mL,1 µg/mL,0.5 to 16 µg/mL,4 µg/mL,2 µg/mL,4 µg/mL,4 µg/mL,2 µg/mL,decreased,6 µg/mL,1.5 – 3 fold,6–12 fold,stimulated the release,4 µg/mL,4 µg/mL,4 µg/mL,6 µg/mL,4 µg/mL,decreased; also recorded: significantly reduced,,"fold decrease in MRSA growth from the treated biofilm (MRSA (USA700) biofilms; 0.03 mg/mL): 10^4 fold; fold decrease in MRSA growth from the treated biofilm (MRSA (USA700) biofilms; 0.5 mg/mL): 10^6 fold; fold decrease in MRSA growth from the treated biofilm (MRSA (USA700) biofilms; 1 mg/mL): 10^7 fold; MIC (MRSA USA 700; USA 700, 0.05 mg/mL MK-4): 16 µg/mL; MIC (MRSA USA 700; USA 700, 0.5 mg/mL MK-4): 64 µg/mL; colonies on MK-4 supplemented agar plate (MRSA (USA200); USA200, 8 μg/mL inhibitor + MK-4 100 μg/mL): showed wild-type colonies; colonies on agar plates (MRSA (USA200); USA200, more than 2× MIC, after 24 h): No colonies were observed; induction of small colony variants (SCV) (MRSA (USA200); USA200 on TSA, 37 °C, up to 96 h (3a 4–16 μg/mL), 72 h (7c, rifampin)): did not induce SCV; MICs against MRSA strains (range) (MRSA strains): 1 to 8 µg/mL"
COc1ccc2ccc(OCCCCCCCCNCCc3ccc(Br)cc3)cc2c1 [3c],> 64 µg/mL,1 µg/mL,0.5 to 16 µg/mL,4 µg/mL,4 µg/mL,4 µg/mL,6 µg/mL,2 µg/mL,,12 µg/mL,,,,4 µg/mL,,6 µg/mL,6 µg/mL,4 µg/mL,,2 µg/mL,"MIC (MRSA USA 200; USA 200, 0.05 mg/mL MK-4): 16 µg/mL; MIC (MRSA USA 200; USA 200, 0.5 mg/mL MK-4): 64 µg/mL"
Brc1cc2ccc(OCCCCCCCCN3CCCCC3)cc2cc1OCc1ccccc1 [6b],,,,,,,,,decreased,,1.5 – 3 fold,6–12 fold,stimulated the release,,16 µg/mL,,,,decreased; also recorded: significantly reduced,4 µg/mL,"MIC, PA (Pseudomonas aeruginosa): >128 µg/mL; MIC, EF (Enterococcus faecalis): 2 µg/mL; MIC, MSSA [1]: 4 µg/mL; MIC, MA (Mycobacterium avium): 2 µg/mL; MIC, Staphylococcus aureus isolate USA300 (MRSA USA300): 6 µg/mL; MIC, Staphylococcus aureus isolate USA500 (MRSA USA500): 12 µg/mL; MIC, Staphylococcus aureus isolate USA100 (MRSA USA100): 6 µg/mL; MIC, Staphylococcus aureus isolate USA800 (MRSA USA800): 12 µg/mL; MIC, Staphylococcus aureus isolate USA400 (MRSA USA400): 6 µg/mL"
